Results from patent US7438931B2, “Methods and compositions for the treatment of angiogenic diseases” (The Regents of The University of Michigan, priority 1998, dated 2008).

What was measured:
[1] = system: Serum ceruloplasmin (Cp); experiment: Phase I trial: serum ceruloplasmin as surrogate marker of total-body copper; type: in vivo, human
Description: Three dose regimens were evaluated. All dose levels consisted of TM 20 mg given 3 times daily with meals plus an escalating (levels I, II, and III) in-between meal dosing, given 3 times daily, for a total of 6 doses per day. Loading dose levels I, II, and III provided TM at 10 mg, 15 mg, and 20 mg, 3 times daily between meals, respectively, in addition to the 3 doses of 20 mg each, given with meals, at all dose levels.
Baseline Cp was taken as the nearest Cp measurement to day 1 of treatment, including day 1, since the blood was drawn pre-TM, for all patients. The target Cp reduction was defined as 20% of baseline Cp. Due to Cp assay variability of approximately 2%, a change of Cp to 22% of baseline was considered as achieving the desired reduction of copper. In addition, if the absolute Cp was less than 5 mg/dl, then the patient was considered as having reached the target Cp. No patient reached the target due to an absolute Cp of less that 5 mg/dl, without also being at least 78% reduced from baseline. After reaching the target copper deficient state, TM doses were individually tailored to maintain Cp within a target window of 70-90% reduction from baseline.
A method was required to monitor copper status easily and reliably, so that TM dose could be adjusted appropriately during this trial. With TM administration, serum copper is not a useful measure of total-body copper, because the TM-copper-albumin complex is not rapidly cleared, and the total serum copper (including the fraction bound to the TM-protein complex) actually increases during TM therapy (Brewer et al., 1991a; 1994b; 1996). The serum ceruloplasmin level obtained weekly was used as a surrogate measure of total-body copper status. The serum Cp level is controlled by Cp synthesis by the liver, which, in turn, is determined by copper availability to the liver (Linder et al., 1979). […] The serum Cp level is in the range of 20-35 mg/dl and 30-65 mg/dl for normal controls and cancer patients, respectively. The objective as this trial was to reduce Cp to or below 20% of baseline, and to maintain this level, within a window spanned by (20±10) % of the baseline Cp, with typical Cp values in the range of 7-12 mg/dl. Since there appears to be no untoward clinical effects from this degree of copper reduction, this level of copper deficiency has been termed “chemical copper deficiency”. The first indication of true clinical copper deficiency is a reduction in blood cell counts, primarily anemia, as copper is required for heme synthesis as well as cellular proliferation (Brewer et al., 1996). Thus, the copper deficiency objective of this trial was to reduce the Cp to 20% of baseline or below, without decreasing the patient's hematocrit or WBC to below 80% of the baseline value at entry.
Complete blood counts, liver and renal function tests, urinalyses, and Cp level (by the oxidase method) were performed weekly for 16 weeks, then bi-weekly. Physical examinations and evaluations of toxicity were carried out every 2 weeks for 8 weeks, then every 4 weeks for the duration of therapy. Toxicity was evaluated using the National Cancer Institute Common Toxicity Criteria (Table 3). As TM is not a cytotoxic drug at the doses employed, and it has already been given to humans without any other toxicities than the ones described in detail above, the majority of the toxicities listed in Table 3, should they arise, are not expected to be due to TM. Nevertheless, therapy will be discontinued and the patient removed from the study if grade 3 or higher toxicities of any type are observed, whatever the probable etiology. For grade 2 toxicities, an attempt will be made to establish their etiology.

[2] = Stability of sucrose-TM complex vs pure TM in open air (OD467); type: physicochemical; conditions: after 3 months of storage in an open dish
Description: An example of such a stabilized thiomolybdate compound is tetrathiomolybdate stabilized by sucrose. To prepare the sucrose-ammonium tetrathiomolybdate complex, 25 grams of sucrose is dissolved in 20 ml of distilled water. 1 gram of ammonium tetrathiomolybdate (TM) is added and the mixture stirred under argon until the TM is solution. The water is then removed from the mixture by flash evaporation under high vacuum.
After 3 months of storage in an open dish, the sucrose powder retained 61% of the original drug as measured by the OD467, while the TM stored under the same conditions retained only 5% of its original OD467.

[3] = system: copper toxicity; conditions: late stages of liver disease; cited from earlier work
[4] = system: mouse sarcoma, MCA205, and a mouse melanoma, B16B16; experiment: Mouse tumor model, injected tumor cells in C57B1/6J mice; type: in vivo
Description: Under these guidelines, anti-angiogenesis therapeutic studies were conducted using TM in a mouse tumor model. This study involved subcutaneous or intramuscular injection of tumor cells into young adult C57B1/6J mice. Two tumors were used, a mouse sarcoma, MCA205, and a mouse melanoma, B16B16. The MCA 205 tumor cell suspension was injected subcutaneously into C57B16 mice. After the tumors were palpable, copper deficiency was induced by use of TM in half the animals, using Cp levels to monitor copper status. The other half were sham treated. Tumor growth was compared between the untreated control group and mice treated with sufficient TM to reduce Cp to about 10% of normal controls.

[5] = in vivo, iv; cited from earlier work
[6] = Storage stability of TM (bulk under argon, capsules); type: physicochemical; conditions: room temperature
Text: The bulk drug is therefore stored under argon.
TM was purchased in bulk lots suitable for human administration (Aldrich Chemical Company, Milwaukee, Wis.). […] At the time a prescription was written, the appropriate dose of TM was placed in gelatin capsules. Previously, it was shown by the inventors that TM dispensed in such capsules retained at least 90% of its potency for eight weeks (Brewer et al., 1991a). Thus, TM was dispensed to each patient in eight-week installments throughout the trial.

[7] = initial TM doses 90 to 120 mg per day, six times per day regimen

**Q.** For tetrathiomolybdate [TM], which “No. of Patients: Achieved Target Cp” value ([1]; 18 patients) is on record?
**A.** Its value is 14.

**Q.** What about the “No. of Patients: Did Not Achieve Target Cp” value ([1]; 18 patients) of the same substance?
**A.** Its value is 4.

**Q.** What about the “time to Cp 50% of baseline, mean” value ([1]; 90, 105 and 120 mg/day) of the same substance?
**A.** The value was 30 days.

**Q.** What about the “time to Cp 50% of baseline, median” value ([1]; 90, 105 and 120 mg/day) of the same substance?
**A.** Its value is 28 days.

**Q.** What about the “time for further reduction to Cp levels of 5-10 mg/dl” value ([1]; after reduction to 50% of baseline) of the same substance?
**A.** Its value is 20 to 30 days.

**Q.** What about the “effect of increasing in-between meals dose on Cp decrease” value ([1]; from 10 mg 3× daily to 15 mg or 20 mg 3× daily) of the same substance?
**A.** Its value is “no significant effect on the rate of decrease of the Cp level”.

**Q.** What about the “No. of Patients: Target Cp <90 days” value ([1]; in vivo) of the same substance?
**A.** Its value is 8/14.

**Q.** What about the “No. of Patients: Target Cp >90 days” value ([1]; in vivo) of the same substance?
**A.** Its value is 6/14.

**Q.** What about the “patients maintained at the target Cp for more than 90 days” value ([1]; in vivo) of the same substance?
**A.** Its value is 39 % of those treated.

**Q.** And the “time to rapid rise in Cp when TM was discontinued” value ([1]; in vivo)?
**A.** Its value is ≤ 48 h.

**Q.** And the “patients with serum Cp lowered to 20% of baseline” value [1, 7]?
**A.** The value was 14 out of 18.

**Q.** What about the “patients with serum Cp lowered to 50% of baseline” value [1, 7] of the same substance?
**A.** The value was 17 out of 18.

**Q.** What about the “reaching the target Cp” value ([1]; level III dose 120 mg/day) of the same substance?
**A.** The value was “effective in reaching the target Cp, without added toxicity”.

**Q.** What about the “retained % of the original drug as measured by the OD467” value [2] of the same substance?
**A.** Its value is 5%.

**Q.** And the “efficacy against copper toxicity” value [3]?
**A.** The value was “very effective in treating these animals in the late stages of their liver disease”.

**Q.** What about the tumor growth ([4]; TM sufficient to reduce Cp to about 10% of normal, 16 days of observation) of the same substance?
**A.** The tumor growth was “Tumor growth was slowed by the treatment, although not halted”.

**Q.** What about the “tumor weight normalized to total weight of the animal” value ([4]; TM-treated vs control mice) of the same substance?
**A.** The value was “weighed significantly less than the tumors in control mice”.

**Q.** What about the excreted in feces [5] of the same substance?
**A.** Its excreted in feces is 5%.

**Q.** What about the excreted in urine [5] of the same substance?
**A.** Its excreted in urine is “over 90%”.

**Q.** And the “t1/2 of slow plasma disappearance” value [5]?
**A.** Its value is “about 40 h”.

**Q.** What about the stability in capsules [6] of the same substance?
**A.** Its stability in capsules is “stable in capsules for several months at room temperature”.
